# How the values were obtained:
# [1] = tested on: Staphylococcus aureus ATCC 25923; assay: Paper disc diffusion, zone of inhibition; assay type: cell-based; conditions: disc with 1000 µg mL−1 in DMSO, 37 °C; for zone of inhibition at 1000 µg/mL: Staphylococcus aureus, ATCC25923, 24 h
# Protocol: (§1) All the synthesized compounds were screened for antibacterial activities using minimum inhibitory concentrations (MIC) and zone of inhibitions against Gram (+)and Gram (−) bacterial strains. ATCC strains of the test microorganism selected for antibacterial assay were Gram-positive bacteria; Staphylococcus aureus ATCC 25923, Bacillus subtilus ATCC 11774, and Gram-negative bacteria; Escherichia coli ATCC 10536. The bacterial strains’ stock cultures were kept in Nutrient agar (Oxoid, UK) at 4 °C and inocula were prepared by transferring several single colonies of microbes to a sterile Mueller Hinton broth. The bacterial cell suspension was mixed until homogeneity to give a final density of 5 × 10^5 cfu/mL
# (§2) Preliminary screenings of synthesized compounds were conducted on agar plates using the disc diffusion method. The plates were prepared using Mueller–Hinton agar following the autoclave process (121 °C for 30 min). After cooling, the plates were inoculated with the suspension of microorganisms (S. aureus, B. subtilis and E. coli). The paper discs impregnated with the test compounds (1000 µg mL^−1 in dimethyl sulfoxide) were placed on the solidified medium and incubated at 37 °C for 24 hours before recording the zone of inhibition in millimeters.
# [2] = tested on: Escherichia coli ATCC 10536; assay: Paper disc diffusion, zone of inhibition; assay type: cell-based; conditions: ATCC10536, disc with 1000 µg mL−1 in DMSO, 37 °C, 24 h
# Protocol: as §1, §2
# [3] = tested on: Bacillus subtilis ATCC 11774; assay: Paper disc diffusion, zone of inhibition; assay type: cell-based; conditions: disc with 1000 µg mL−1 in DMSO, 37 °C; for zone of inhibition at 1000 µg/mL: Bacillus subtilis, ATCC11774, 24 h
# Protocol: as §1, §2
# E. coli ATCC 10536 = assay: Tetrazolium (MTT) microplate assay of minimum inhibitory concentration; assay type: cell-based; conditions: Escherichia coli, ATCC10536
# Protocol: as §1
# (§3) The minimum inhibitory concentrations of test microorganisms and reference material were determined using the tetrazolium microplate assay method. The assay was performed using a 96-well clear microtiter plate. Freshly harvested bacterial cell and fungal cell suspensions were seeded at 5 × 10^5 cfu/mL in each well of the 96-well plate. Different concentrations, 500 to 10 µg/mL, of the test compounds were diluted in series with Muller–Hinton broth. A volume of 200 µL of each concentration was added in triplicate to the wells and the plates were then incubated for 18–24 h at 37 °C ± 0.5. After incubation, in each well, 50 µL of 3-(4, 5-dimethylthiazol-2-yl)-2, 5-diphenyltetrazolium bromide MTT, having a concentration of 0.2 mg/mL, was added and the plate was incubated at 37 °C for 30 min. An appropriate solvent blank (DMSO) was included as the negative control and the bacterial suspension was included as the positive control. The absorbance was measured at 570 nm with a reference wavelength of 650 nm by adding DMSO using a spectrophotometer and the percentage reduction of the dye (indicating the bacterial growth inhibition) was calculated.
# B. subtilis ATCC 11774 = assay: as above; assay type: cell-based; conditions: Bacillus subtilis, ATCC11774
# Protocol: as §1, §3
# S. aureus ATCC 25923 = assay: as above; assay type: cell-based; conditions: Staphylococcus aureus, ATCC25923
# Protocol: as §1, §3
# [4] = Brine shrimp lethality bioassay; assay type: in vivo, Artemia salina; conditions: Artemia salina (brine shrimp) nauplii, in vivo, other: exposure in sea water containing the compound, 24 h incubation, regression analysis, read-out: LC50 (median lethal concentration)
# Protocol: (§4) The cytotoxicities of synthesized hydrazones were recorded by employing an in vitro brine shrimp lethality bioassay technique. The eggs of Artemia salina (brine shrimp) were allowed to incubate at 30 °C for 48 h under a light and dark cycle using artificial sea water before subjecting them to the sample solutions. The hatched larvae (nauplii) were collected with using a Pasteur pipette and were transferred to freshly prepared sea water (commercial salt and double-distilled water). The stock solutions of each compound were prepared at 500 µg/mL concentration in DMSO and sea water at 1:1, and further serial dilutions of 25, 50, 100, 200 and 300 µg/mL were prepared using sea water. Using a 2mL volume from each dilution, sea water containing 10 nauplii was added to a test tube and incubated for 24 h. A solvent mixture with nauplii containing no test compound was used as the control. After due time, the number of nauplii that survived was determined using a magnifying glass. The experiment was performed in triplicate and the median lethal concentration (LC50) ± SEM was calculated using regression analysis.
# [5] = tested on: Artemia salina (brine shrimp) nauplii; assay: Brine shrimp lethality bioassay; assay type: in vivo; conditions: 24 h, concentration not given
# Protocol: as §4
Structure (SMILES),zone of inhibition at 1000 µg/mL [1] [mm],zone of inhibition at 1000 µg/mL [2] [mm],zone of inhibition at 1000 µg/mL [3] [mm],inhibition at 25 µg/mL (E. coli ATCC 10536) [%],inhibition at 50 µg/mL (E. coli ATCC 10536) [%],inhibition at 100 µg/mL (E. coli ATCC 10536) [%],inhibition at 200 µg/mL (E. coli ATCC 10536) [%],inhibition at 25 µg/mL (B. subtilis ATCC 11774) [%],inhibition at 50 µg/mL (B. subtilis ATCC 11774) [%],inhibition at 100 µg/mL (B. subtilis ATCC 11774) [%],inhibition at 200 µg/mL (B. subtilis ATCC 11774) [%],inhibition at 25 µg/mL (S. aureus ATCC 25923) [%],inhibition at 50 µg/mL (S. aureus ATCC 25923) [%],inhibition at 100 µg/mL (S. aureus ATCC 25923) [%],inhibition at 200 µg/mL (S. aureus ATCC 25923) [%],inhibition at 300 µg/mL (E. coli ATCC 10536) [%],inhibition at 300 µg/mL (B. subtilis ATCC 11774) [%],inhibition at 400 µg/mL (B. subtilis ATCC 11774) [%],inhibition at 300 µg/mL (S. aureus ATCC 25923) [%],inhibition at 400 µg/mL (S. aureus ATCC 25923) [%],other results
"NCC[C@H](O)C(=O)N[C@@H]1C[C@H](N)[C@@H](O[C@H]2O[C@H](CN)[C@@H](O)[C@H](O)[C@H]2O)[C@H](O)[C@H]1O[C@H]1O[C@H](CO)[C@@H](O)[C@H](N)[C@H]1O [Amikacin, reference compound]",24,38,30,–,–,–,–,–,–,–,–,–,–,–,–,–,–,–,–,–,–
"CC1(C)S[C@@H]2[C@H](NC(=O)[C@H](N)c3ccc(O)cc3)C(=O)N2[C@H]1C(=O)O [Amoxicillin, reference compound]",–,–,–,40 ± 0.5,66 ± 0.5,85 ± 0.6,96 ± 1,–,–,–,–,–,–,–,–,–,–,–,–,–,"IC50 (E. coli ATCC 10536; E. coli, concentration inhibiting 66 ± 0.5%): 50 µg/mL"
"CO/N=C(\C(=O)N[C@@H]1C(=O)N2C(C(=O)O)=C(CSc3nc(=O)c(=O)[nH]n3C)CS[C@H]12)c1csc(N)n1 [Ceftriaxone, reference compound]",–,–,–,–,–,–,–,40 ± 0.5,55 ± 0.7,79 ± 1.2,92 ± 1.2,30 ± 0.8,55 ± 0.3,80 ± 1.2,96 ± 1,–,–,–,–,–,"IC50 (B. subtilis ATCC 11774; B. subtilis, concentration inhibiting 55 ± 0.7%): 50 µg/mL; minimum inhibitory concentration (S. aureus ATCC 25923; S. aureus, concentration inhibiting 55 ± 0.3%, read-out: IC50): 50 µg/mL"
"COc1cc(/C=N/NC(=O)c2ccncc2)ccc1OCC(=O)OC(C)(C)C [NH1, Tert-butyl (E)-2-(4-((2-Isonicotinoylhydrazineylidene)methyl)-2-methoxyphenoxy) Acetate]",24,25,14,9 ± 0.5,18 ± 0.5,40 ± 0.4,60 ± 0.5,–,5 ± 0.3,26 ± 0.3,44 ± 0.4,–,10 ± 0.6,25 ± 0.7,55 ± 1,79 ± 1,60 ± 0.5,75 ± 0.5,63 ± 1,69 ± 2,Zone of Inhibition ([1]; 24 h): 20 mm; inhibition at 500 µg/mL (S. aureus ATCC 25923; 500 µg/mL): 80 ± 1.5%
"CC(C)(C)OC(=O)COc1ccc(/C=N/NC(=O)c2ccncc2)cc1 [NH2, Tert-butyl (E)-2-(4-((2-Isonicotinoylhydrazineylidene)methyl)phenoxy) Acetate]",15,14,14,–,–,10 ± 0.3,25 ± 0.3,4 ± 0.2,12 ± 0.3,22 ± 0.3,44 ± 0.5,11 ± 1,21 ± 1.2,42 ± 2,50 ± 2,55 ± 0.5,60 ± 0.5,81 ± 0.6,63 ± 1.5,74 ± 2,inhibition at 400 µg/mL (E. coli ATCC 10536; 400 µg/mL): 70 ± 0.3%
"COc1cc(/C=N/NC(=O)c2ccncc2)ccc1OCC=C(C)C [NH3, (E)-N′-(3-Methoxy-4-((3-methylbut-2-en-1-yl)oxy)benzylidene)isonicotinohydrazide]",24,33,23,–,36 ± 0.5,50 ± 0.5,65 ± 0.2,12 ± 0.4,20 ± 0.7,28 ± 0.8,53 ± 0.7,24 ± 0.7,35 ± 1.2,44 ± 2,60 ± 1.5,85 ± 1.2,74 ± 0.9,84 ± 0.9,78 ± 1,89 ± 1.5,Zone of Inhibition ([3]; 24 h): 22 mm; LC50 at 24 h [4]: 240 µg/mL
"CC(C)=CCOc1ccc(/C=N/NC(=O)c2ccncc2)cc1 [NH4, (E)-N′-(4-((3-Methylbut-2-en-1-yl)oxy)benzylidene)isonicotinohydrazide]",20,21,23,–,5 ± 0.5,25 ± 0.5,54 ± 0.4,10 ± 0.7,18 ± 0.6,29 ± 0.8,50 ± 1.1,16 ± 0.5,24 ± 1,38 ± 1.5,55 ± 0.9,75 ± 0.8,68 ± 1,77 ± 0.8,71 ± 2,89 ± 1.5,–
"CCCOc1ccc(/C=N/NC(=O)c2ccncc2)cc1OC [NH5, (E)-N′-(3-Methoxy-4-propoxybenzylidene) isonicotinohydrazide]",22,24,25,10 ± 0.6,18 ± 0.6,34 ± 0.3,58 ± 0.6,–,10 ± 0.5,26 ± 0.5,53 ± 0.6,5 ± 0.4,12 ± 0.4,35 ± 0.7,58 ± 1.1,79 ± 0.8,73 ± 0.8,–,77 ± 1.5,–,minimum survival percentage [5]: 36.10 ± 3.45%
"CCCOc1ccc(/C=N/NC(=O)c2ccncc2)cc1 [NH6, (E)-N′-(4-Propoxybenzylidene) Isonicotinohydrazide]",17,22,23,5 ± 0.2,14 ± 0.5,28 ± 0.5,50 ± 0.7,–,10 ± 0.6,23 ± 0.7,52 ± 0.8,–,5.5 ± 0.5,25 ± 0.5,52 ± 1.6,73 ± 0.7,70 ± 1.1,–,72 ± 1.2,80 ± 1,minimum survival percentage [5]: 32.44 ± 2.0%; LC50 at 24 h [4]: 162 µg/mL

# — PMC9571093, “Synthesis and Characterization of Novel Hydrazone Derivatives of Isonicotinic Hydrazide and Their Evaluation for Antibacterial and Cytotoxic Potential” (Molecules, 2022)
